Tests used:
[1] = biological target: T1, Jak2 (a.a. 828-1132) (Homo sapiens, UniProt O60674); test: In vitro JAK kinase assay (HTRF, phosphorylation of a biotinylated peptide), JAK2, reported as JAK2/JAK1 ratio; assay type: biochemical
T1 construct: Jak2 (a.a. 828-1132); His tag (N); made in house; host or cells: insect cells (baculovirus)
Protocol: (§1) Compounds herein were tested for inhibitory activity of JAK targets according to the following in vitro assay described in Park et al., Analytical Biochemistry 1999, 269, 94-104. The catalytic domains of human JAK1 (a.a. 837-1142), Jak2 (a.a. 828-1132) and Jak3 (a.a. 781-1124) with an N-terminal His tag were expressed using baculovirus in insect cells and purified. The catalytic activity of JAK1, JAK2 or JAK3 was assayed by measuring the phosphorylation of a biotinylated peptide. The phosphorylated peptide was detected by homogenous time resolved fluorescence (HTRF). IC50s of compounds were measured for each kinase in the 40 microL reactions that contain the enzyme, ATP and 500 nM peptide in 50 mM Tris (pH 7.8) buffer with 100 mM NaCl, 5 mM DTT, and 0.1 mg/mL (0.01%) BSA. The ATP concentration in the reactions was 90 μM for Jak1, 30 μM for Jak2 and 3 μM for Jak3 for Km conditions. For the 1 mM IC50 measurements, ATP concentration in the reactions was 1 mM. Reactions were carried out at RT for 1 h and then stopped with 20 μL 45 mM EDTA, 300 nM SA-APC, 6 nM Eu-Py20 in assay buffer (Perkin Elmer, Boston, Mass.). Binding to the Europium labeled antibody took place for 40 min and HTRF signal was measured on a Fusion plate reader (Perkin Elmer, Boston, Mass.).
(§2) Compounds herein were tested for inhibitory activity of JAK1 and JAK2 targets according to the assay of Example A (experiments run at Km or 1 mM as indicated). The symbol “+” indicates an IC50<50 nM; the symbol “++” indicates an IC50≧50 and ≦100 nM; and the symbol “+++” indicates an IC50>100 and ≦500 nM.

[2] = biological target: T2, human JAK1 (a.a. 837-1142) (Homo sapiens, UniProt P23458); test: In vitro JAK kinase assay (HTRF, phosphorylation of a biotinylated peptide), JAK1; assay type: biochemical
T2 construct: human JAK1 (a.a. 837-1142); His tag (N); made in house; host or cells: insect cells (baculovirus)
Protocol: as §1, §2

T2 sequence (P23458 849-1154): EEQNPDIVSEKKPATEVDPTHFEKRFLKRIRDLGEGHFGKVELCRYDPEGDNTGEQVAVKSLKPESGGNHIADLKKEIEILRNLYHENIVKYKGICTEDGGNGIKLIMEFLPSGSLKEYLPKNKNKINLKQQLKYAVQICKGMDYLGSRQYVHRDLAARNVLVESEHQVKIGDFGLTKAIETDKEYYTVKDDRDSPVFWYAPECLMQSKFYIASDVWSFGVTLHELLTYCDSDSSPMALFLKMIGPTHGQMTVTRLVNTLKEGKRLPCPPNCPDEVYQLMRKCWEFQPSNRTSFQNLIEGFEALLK
T1 sequence (O60674 828-1132): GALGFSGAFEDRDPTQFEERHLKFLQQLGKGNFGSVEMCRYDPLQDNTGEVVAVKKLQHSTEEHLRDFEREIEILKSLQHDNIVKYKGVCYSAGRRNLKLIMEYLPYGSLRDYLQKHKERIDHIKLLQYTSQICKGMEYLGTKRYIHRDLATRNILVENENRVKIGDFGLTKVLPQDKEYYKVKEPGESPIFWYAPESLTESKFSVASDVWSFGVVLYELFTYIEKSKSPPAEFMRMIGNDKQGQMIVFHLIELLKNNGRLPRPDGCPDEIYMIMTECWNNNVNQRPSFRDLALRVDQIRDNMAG

Row | Structure (SMILES) | JAK2/JAK1 IC50 ratio ([1]; Assay Conditions 1 mM ATP) | IC50 ([2]; Assay Conditions 1 mM ATP) [nM] | JAK2/JAK1 IC50 ratio ([1]; Assay Conditions Km (ATP 90 μM for Jak1, 30 μM for Jak2)) | IC50 ([2]; Assay Conditions Km (ATP 90 μM for Jak1)) [nM]
1 | CS(=O)(=O)c1nccc(N2CCC(C(CC#N)n3cc(-c4ncnc5[nH]ccc45)cn3)C2)n1 (single isomer, unassigned) [Example 25, 3-{1-[2-(methylsulfonyl)pyrimidin-4-yl]pyrrolidin-3-yl}-3-[4-(7H-pyrrolo[2,3-d]pyrimidin-4-yl)-1H-pyrazol-1-yl]propanenitrile] | 34 | < 50 | – | –
2 | CS(=O)(=O)c1cccc(N2CCC(C(CC#N)n3cc(-c4ncnc5[nH]ccc45)cn3)C2)n1 (single isomer, unassigned) [Example 26, 3-{1-[6-(methylsulfonyl)pyridin-2-yl]pyrrolidin-3-yl}-3-[4-(7H-pyrrolo[2,3-d]pyrimidin-4-yl)-1H-pyrazol-1-yl]propanenitrile] | 5.2 | 50 to 100 | – | –
3 | CS(=O)(=O)c1cc(N2CCC(C(CC#N)n3cc(-c4ncnc5[nH]ccc45)cn3)C2)ccn1 (single isomer, unassigned) [Example 27, 3-{1-[2-(methylsulfonyl)pyridin-4-yl]pyrrolidin-3-yl}-3-[4-(7H-pyrrolo[2,3-d]pyrimidin-4-yl)-1H-pyrazol-1-yl]propanenitrile] | 14 | < 50 | – | –
4 | N#CCC(C1CCN(c2ccc3c(n2)[S+]([O-])CC3)C1)n1cc(-c2ncnc3[nH]ccc23)cn1 (single isomer, unassigned) [Example 28, 3-[1-(1-oxido-2,3-dihydrothieno[2,3-b]pyridin-6-yl)pyrrolidin-3-yl]-3-[4-(7H-pyrrolo[2,3-d]pyrimidin-4-yl)-1H-pyrazol-1-yl]propanenitrile] | 4 | < 50 | – | –

Other lines, results leading:

Row | JAK2/JAK1 IC50 ratio ([1]; Assay Conditions 1 mM ATP) | IC50 ([2]; Assay Conditions 1 mM ATP) [nM] | JAK2/JAK1 IC50 ratio ([1]; Assay Conditions Km (ATP 90 μM for Jak1, 30 μM for Jak2)) | IC50 ([2]; Assay Conditions Km (ATP 90 μM for Jak1)) [nM] | Structure (SMILES)
5 | 12 | < 50 | – | – | N#CCC(C1CCN(c2ccc3c(n2)SCC3)C1)n1cc(-c2ncnc3[nH]ccc23)cn1 (single isomer, unassigned) [Example 29, 3-[1-(2,3-dihydrothieno[2,3-b]pyridin-6-yl)pyrrolidin-3-yl]-3-[4-(7H-pyrrolo[2,3-d]pyrimidin-4-yl)-1H-pyrazol-1-yl]propanenitrile]
6 | 14.5 | < 50 | – | – | N#CCC(C1CCN(c2ccc3c(n2)S(=O)(=O)CC3)C1)n1cc(-c2ncnc3[nH]ccc23)cn1 (single isomer, unassigned) [Example 30, 3-[1-(1,1-dioxido-2,3-dihydrothieno[2,3-b]pyridin-6-yl)pyrrolidin-3-yl]-3-[4-(7H-pyrrolo[2,3-d]pyrimidin-4-yl)-1H-pyrazol-1-yl]propanenitrile]
7 | 34 | < 50 | – | – | N#CCC(C1CCN(c2nc3cccnc3o2)C1)n1ccc(-c2ncnc3[nH]ccc23)c1 (single isomer, unassigned) [Example 33, 3-(1-[1,3]oxazolo[5,4-b]pyridin-2-ylpyrrolidin-3-yl)-3-[3-(7H-pyrrolo[2,3-d]pyrimidin-4-yl)-1H-pyrrol-1-yl]propanenitrile phosphate]
8 | – | – | 7.4 | < 50 | N#CCC(C1CCN(c2cccc(Cl)[n+]2[O-])C1)n1cc(-c2ncnc3[nH]ccc23)cn1 (single isomer, unassigned) [Example 45, 3-[1-(6-chloro-1-oxidopyridin-2-yl)pyrrolidin-3-yl]-3-[4-(7H-pyrrolo[2,3-d]pyrimidin-4-yl)-1H-pyrazol-1-yl]propanenitrile]
9 | 6.0 | < 50 | – | – | N#Cc1nnccc1N1CC[C@H](C(CF)n2cc(-c3ncnc4[nH]ccc34)cn2)C1 (single isomer, unassigned) [Example 116]
10 | 3.2 | < 50 | – | – | N#CCC(C1CCN(c2ccnc(S)n2)C1)n1cc(-c2ncnc3[nH]ccc23)cn1 (single isomer, unassigned) [Example 150, 3-[1-(2-mercaptopyrimidin-4-yl)pyrrolidin-3-yl]-3-[4-(7H-pyrrolo[2,3-d]pyrimidin-4-yl)-1H-pyrazol-1-yl]propanenitrile]

From US8716303B2, “N-(hetero)aryl-pyrrolidine derivatives of pyrazol-4-yl-pyrrolo[2,3-d]pyrimidines and pyrrol-3-yl-pyrrolo[2,3-d]pyrimidines as janus kinase inhibitors” (Incyte Corporation, priority 2009, dated 2014)
